{"source": "patent EP0745595A1", "about": "“3-(3-Aryloxyphenyl)-1-(substituted methyl)-s-triazine-2,4,6-oxo or thiotrione herbicidal agents” (American Cyanamid Company, priority 1995, dated 1996);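 for CHEAL: higher means more injury with 8 approaching complete kill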", "format_in_all_cases": "in vivo", "key": {"[1]": {"tested_on": "ORYZA SATIVA, L. TEBONNET", "experiment": "Postemergence herbicidal evaluation, ORYSAT (Rice, Tebonnet)", "design": "key: 0-9 visual rating scale vs untreated control", "experimental": "(§1) In the tests, seedling plants are grown in jiffy flats for about two weeks. The test compounds are dispersed in 50/50 acetone/water mixtures containing 0.5% TWEEN®20, a polyoxyethylene sorbitan monolaurate surfactant of Atlas Chemical Industries, in sufficient quantities to provide the equivalent of about 0.125 kg to 0.500 kg per hectare of active compound when applied to the plants through a spray nozzle operating at 40 psi for a predetermined time. After spraying, the plants are placed on greenhouse benches and are cared for in the usual manner, commensurate with conventional greenhouse practices. From four to five weeks after treatment, the seedling plants are examined and rated according to the rating system set forth below. Where more than one test is involved for a given compound, the data are averaged.\n(§2) Plant species employed in these evaluations are reported by header abbreviation, common name and scientific name.\n(§3) Results of herbicide evaluation are expressed on a rating scale (0-9). The scale is based upon a visual observation of plant stand, vigor, malformation, size, chlorosis and overall plant appearance as compared with a control."}, "ZEA MAYS L.": {"tested_on": "ZEA MAYS L.", "experiment": "Postemergence herbicidal evaluation, ZEAMX (Corn, Field)", "experimental": "as §1, with “in sufficient quantities to provide the equivalent of about 0.125 kg to 0.500 kg per hectare of active compound when applied” left out\nas §2, §3"}, "[2]": {"tested_on": "ORYZA SATIVA, L. TEBONNET", "experiment": "Rice tolerance to post-transplant applications under flooded paddy conditions, ORYSAT (Rice, Tebonnet)", "details": "post-transplanted rice", "experimental": "as §3\nThe tolerance of transplanted rice to post-transplanted herbicide applications is determined as follows: two ten-day-old rice seedlings (CV. Tebonnet) are transplanted into a silt loam soil in 32 oz. plastic containers with a diameter of 10.5 cm and no drainage holes. After transplanting the containers are flooded and the water level is maintained at 1.5 to 3 cm above the soil surface. […] The treated containers are placed on greenhouse benches, watered such that the water level is maintained as stated above, and cared for according to normal greenhouse procedures. Three to four weeks after treatment the test is terminated and each container is examined and herbicidal effect rated according to the rating system provided in Example 40. The compounds evaluated are reported by compound number given in Example 40.\nPlant species employed in this example are reported by header abbreviation, common name and scientific name."}, "CASSIA OBTUSIFOLIA, L.": {"tested_on": "CASSIA OBTUSIFOLIA, L.", "experiment": "Postemergence herbicidal evaluation, CASOB (Sicklepod)", "design": "key to CASOB rating / Herbicidal effect rating, CASOB / CASOB: 0-9 visual rating scale vs untreated control", "experimental": "as §1, §2, §3"}, "[3]": {"tested_on": "ABUTILON THEOPHRASTI, MEDIC.", "experiment": "Postemergence herbicidal evaluation, ABUTH (Velvetleaf)", "experimental": "as §1, with “in sufficient quantities to provide the equivalent of about 0.125 kg to 0.500 kg per hectare of active compound when applied” left out\nas §2, §3"}, "IPOMOEA SPP.": {"tested_on": "IPOMOEA SPP.", "experiment": "Postemergence herbicidal evaluation, IPOSS (Morningglory spp.)", "experimental": "as §1, with “in sufficient quantities to provide the equivalent of about 0.125 kg to 0.500 kg per hectare of active compound when applied” left out\nas §2, §3"}, "[4]": {"tested_on": "TRITICUM AESTIVUM, CV. APOLLO", "experiment": "Postemergence herbicidal evaluation, TRZAWO (Wheat, Winter, CV. APOLLO)", "experimental": "as §1, with “in sufficient quantities to provide the equivalent of about 0.125 kg to 0.500 kg per hectare of active compound when applied to the plants” left out\nas §2, §3"}, "[5]": {"tested_on": "ECHINOCHLOA CRUS-GALLI, (L) BEAU", "experiment": "Postemergence herbicidal evaluation, ECHCG (Barnyardgrass)", "design": "key to ECHCG rating / Herbicidal effect rating, ECHCG / ECHCG: 0-9 visual rating scale vs untreated control", "experimental": "as §1, §2, §3"}, "[6]": {"tested_on": "AMBROSIA ARTEMISIIFOLIA, L.", "experiment": "Postemergence herbicidal evaluation, AMBEL (Ragweed, Common)", "experimental": "as §1, with “in sufficient quantities to provide the equivalent of about 0.125 kg to 0.500 kg per hectare of active compound when applied” left out\nas §2, §3"}, "[7]": {"tested_on": "SETARIA VIRIDIS, (L) BEAU", "experiment": "Postemergence herbicidal evaluation, SETVI (Foxtail, Green)", "design": "key to SETVI rating / Herbicidal effect rating, SETVI / SETVI: 0-9 visual rating scale vs untreated control", "experimental": "as §1, §2, §3"}, "CHENOPODIUM ALBUM, L. [8]": {"tested_on": "CHENOPODIUM ALBUM, L.", "experiment": "Preemergence herbicidal evaluation, CHEAL (Lambsquarters, Common)", "from_the_text": "as §3\nThe preemergence herbicidal activity of the test compounds of the present invention is exemplified by the following tests in which the seeds of a variety of monocotyledonous and dicotyledonous plants are separately mixed with potting soil and planted on top of approximately one inch of soil in separate pint cups. […] The treated cups are then placed on greenhouse benches, watered and cared for in accordance with conventional greenhouse procedures. From four to five weeks after treatment, the tests are terminated and each cup is examined and rated according to the rating system provided in Example 40.\nThe compounds evaluated are reported by compound number given in Example 40."}, "CHENOPODIUM ALBUM, L. [9]": {"tested_on": "CHENOPODIUM ALBUM, L.", "experiment": "Postemergence herbicidal evaluation, CHEAL (Lambsquarters, Common)", "experimental": "as §1, with “in sufficient quantities to provide the equivalent of about 0.125 kg to 0.500 kg per hectare of active compound when applied” left out\nas §2, §3"}, "GALIUM APARINE": {"tested_on": "GALIUM APARINE", "experiment": "Postemergence herbicidal evaluation, GALAP (Galium)", "design": "key to GALAP rating / Herbicidal effect rating, GALAP / GALAP: 0-9 visual rating scale vs untreated control", "experimental": "as §1, §2, §3"}, "[10]": {"tested_on": "GLYCINE MAX(L) MERR. CV. WILLIAMS", "experiment": "Postemergence herbicidal evaluation, GLXMAW (Soybean, Williams)", "design": "key to GLXMAW rating / Herbicidal effect rating, GLXMAW / GLXMAW: 0-9 visual rating scale vs untreated control", "experimental": "as §1, §2, §3"}}, "data": [{"smiles": "Cn1c(=O)[nH]c(=O)n(-c2cc(Oc3ccc(C(F)(F)F)cc3Cl)ccc2[N+](=O)[O-])c1=O", "note": "[B, reference compound]", "values": [{"measurement": "Herbicidal effect rating, ORYSAT", "setting": "[1]; 0.031 kg/ha", "result": 4.0}, {"measurement": "Herbicidal effect rating, ORYSAT", "setting": "[1]; 0.063 kg/ha", "result": 4.5}, {"measurement": "Herbicidal effect rating, ORYSAT", "setting": "[1]; 0.125 kg/ha", "result": 5.5}, {"measurement": "Herbicidal effect rating, ORYSAT", "setting": "[1]; 0.250 kg/ha", "result": 5.0}, {"measurement": "Herbicidal effect rating, ZEAMX", "setting": "ZEA MAYS L.; 0.031 kg/ha", "result": 3.3}, {"measurement": "Herbicidal effect rating, ZEAMX", "setting": "ZEA MAYS L.; 0.063 kg/ha", "result": 3.3}, {"measurement": "Herbicidal effect rating, ZEAMX", "setting": "ZEA MAYS L.; 0.125 kg/ha", "result": 4.5}, {"measurement": "Herbicidal effect rating, ZEAMX", "setting": "ZEA MAYS L.; 0.250 kg/ha", "result": 4.3}, {"measurement": "ORYSAT", "setting": "[2]; Rate 0.031 kg/ha", "result": 2.0}, {"measurement": "ORYSAT", "setting": "[2]; Rate 0.063 kg/ha", "result": 3.0}, {"measurement": "ORYSAT", "setting": "[2]; Rate 0.125 kg/ha", "result": 2.5}, {"measurement": "ORYSAT", "setting": "[2]; Rate 0.250 kg/ha", "result": 4.5}, {"measurement": "Herbicidal effect rating, CASOB", "setting": "CASSIA OBTUSIFOLIA, L.; 0.031 kg/ha", "result": 3.5}, {"measurement": "Herbicidal effect rating, CASOB", "setting": "CASSIA OBTUSIFOLIA, L.; 0.063 kg/ha", "result": 4.0}, {"measurement": "Herbicidal effect rating, CASOB", "setting": "CASSIA OBTUSIFOLIA, L.; 0.125 kg/ha", "result": 8.0}, {"measurement": "Herbicidal effect rating, CASOB", "setting": "CASSIA OBTUSIFOLIA, L.; 0.250 kg/ha", "result": 5.5}, {"measurement": "Herbicidal effect rating, ABUTH", "setting": "[3]; 0.031 kg/ha", "result": 4.5}, {"measurement": "Herbicidal effect rating, ABUTH", "setting": "[3]; 0.063 kg/ha", "result": 7.0}, {"measurement": "Herbicidal effect rating, ABUTH", "setting": "[3]; 0.125 kg/ha", "result": 7.0}, {"measurement": "Herbicidal effect rating, ABUTH", "setting": "[3]; 0.250 kg/ha", "result": 9.0}, {"measurement": "Herbicidal effect rating, IPOSS", "setting": "IPOMOEA SPP.; 0.031 kg/ha", "result": 8.0}, {"measurement": "Herbicidal effect rating, IPOSS", "setting": "IPOMOEA SPP.; 0.063 kg/ha", "result": 9.0}, {"measurement": "Herbicidal effect rating, IPOSS", "setting": "IPOMOEA SPP.; 0.125 kg/ha", "result": 8.0}, {"measurement": "Herbicidal effect rating, IPOSS", "setting": "IPOMOEA SPP.; 0.250 kg/ha", "result": 9.0}, {"measurement": "Herbicidal effect rating, TRZAWO", "setting": "[4]; 0.031 kg/ha", "result": 3.0}, {"measurement": "Herbicidal effect rating, TRZAWO", "setting": "[4]; 0.063 kg/ha", "result": 3.0}, {"measurement": "Herbicidal effect rating, TRZAWO", "setting": "[4]; 0.125 kg/ha", "result": 4.0}, {"measurement": "Herbicidal effect rating, TRZAWO", "setting": "[4]; 0.250 kg/ha", "result": 4.3}, {"measurement": "Herbicidal effect rating, ECHCG", "setting": "[5]; 0.031 kg/ha", "result": 1.0}, {"measurement": "Herbicidal effect rating, ECHCG", "setting": "[5]; 0.063 kg/ha", "result": 2.0}, {"measurement": "Herbicidal effect rating, ECHCG", "setting": "[5]; 0.125 kg/ha", "result": 3.0}, {"measurement": "Herbicidal effect rating, ECHCG", "setting": "[5]; 0.250 kg/ha", "result": 3.5}, {"measurement": "Herbicidal effect rating, AMBEL", "setting": "[6]; 0.031 kg/ha", "result": 3.0}, {"measurement": "Herbicidal effect rating, AMBEL", "setting": "[6]; 0.063 kg/ha", "result": 4.5}, {"measurement": "Herbicidal effect rating, AMBEL", "setting": "[6]; 0.125 kg/ha", "result": 8.0}, {"measurement": "Herbicidal effect rating, AMBEL", "setting": "[6]; 0.250 kg/ha", "result": 7.0}, {"measurement": "Herbicidal effect rating, SETVI", "setting": "[7]; 0.031 kg/ha", "result": 0.5}, {"measurement": "Herbicidal effect rating, SETVI", "setting": "[7]; 0.063 kg/ha", "result": 1.0}, {"measurement": "Herbicidal effect rating, SETVI", "setting": "[7]; 0.125 kg/ha", "result": 0.0}, {"measurement": "Herbicidal effect rating, SETVI", "setting": "[7]; 0.250 kg/ha", "result": 2.0}, {"measurement": "CHEAL", "setting": "CHENOPODIUM ALBUM, L. [8]; Rate 0.031 kg/ha", "result": 4.5}, {"measurement": "CHEAL", "setting": "CHENOPODIUM ALBUM, L. [8]; Rate 0.063 kg/ha", "result": 4.5}, {"measurement": "CHEAL", "setting": "CHENOPODIUM ALBUM, L. [8]; Rate 0.125 kg/ha", "result": 4.5}, {"measurement": "CHEAL", "setting": "CHENOPODIUM ALBUM, L. [8]; Rate 0.250 kg/ha", "result": 4.5}, {"measurement": "Herbicidal effect rating, CHEAL", "setting": "CHENOPODIUM ALBUM, L. [9]; 0.031 kg/ha", "result": 2.0}, {"measurement": "Herbicidal effect rating, CHEAL", "setting": "CHENOPODIUM ALBUM, L. [9]; 0.063 kg/ha", "result": 2.5}, {"measurement": "Herbicidal effect rating, CHEAL", "setting": "CHENOPODIUM ALBUM, L. [9]; 0.125 kg/ha", "result": 7.0}, {"measurement": "Herbicidal effect rating, CHEAL", "setting": "CHENOPODIUM ALBUM, L. [9]; 0.250 kg/ha", "result": 4.5}, {"measurement": "Herbicidal effect rating, GALAP", "setting": "GALIUM APARINE; 0.031 kg/ha", "result": 2.0}, {"measurement": "Herbicidal effect rating, GALAP", "setting": "GALIUM APARINE; 0.063 kg/ha", "result": 2.5}, {"measurement": "Herbicidal effect rating, GALAP", "setting": "GALIUM APARINE; 0.125 kg/ha", "result": 7.0}, {"measurement": "Herbicidal effect rating, GALAP", "setting": "GALIUM APARINE; 0.250 kg/ha", "result": 4.5}, {"measurement": "Herbicidal effect rating, GLXMAW", "setting": "[10]; 0.031 kg/ha", "result": 3.3}, {"measurement": "Herbicidal effect rating, GLXMAW", "setting": "[10]; 0.063 kg/ha", "result": 4.0}, {"measurement": "Herbicidal effect rating, GLXMAW", "setting": "[10]; 0.125 kg/ha", "result": 4.0}, {"measurement": "Herbicidal effect rating, GLXMAW", "setting": "[10]; 0.250 kg/ha", "result": 4.3}]}]}
